The target of experiment [1] is T1, α4β2 neuronal nicotinic receptor subtype (Rattus norvegicus, UniProt P09483+P12390).
T1 construct: Membrane enriched fractions from rat brain minus cerebellum; tissue ABS Inc., Wilmington, DE; host or cells: rat brain minus cerebellum, membrane enriched fractions
Description: [3H]-cytisine binding assay, rat brain membrane preparation. Conditions: [3H]-cytisine binding site; read-out: binding affinity Ki. As to the method: The method can be accomplished under any suitable binding conditions. […] IC50 and Ki values can be determined from data obtained in the [^3H]-cytisine binding assay.
Binding conditions were modified from the procedures described in Pabreza L A, Dhawan, S, Kellar K J, [^3H]-Cytisine Binding to Nicotinic Cholinergic Receptors in Brain, Mol. Pharm. 39: 9-12, 1991. Membrane enriched fractions from rat brain minus cerebellum (ABS Inc., Wilmington, DE) were slowly thawed at 4° C., washed and resuspended in 30 volumes of BSS-Tris buffer (120 mM NaCl/5 mM KCI/2 mM CaCl2/2 mM MgCl2/50 mM Tris-Cl, pH 7.4, 4° C.). Samples containing 100-200 μg of protein and 0.75 nM [^3H]-cytisine (30 Ci/mmol; Perkin Elmer/NEN Life Science Products, Boston, MA) were incubated in a final volume of 500 μL for 75 minutes at 4° C. Seven log-dilution concentrations of each compound were tested in duplicate. Non-specific binding was determined in the presence of 10 μM (−)-nicotine. Bound radioactivity was isolated by vacuum filtration onto prewetted glass fiber filter plates (Millipore, Bedford, MA) using a 96-well filtration apparatus (Packard Instruments, Meriden, CT) and were then rapidly rinsed with 2 mL of ice-cold BSS buffer (120 mM NaCl/5 mM KCl/2 mM CaCl2/2 mM MgCl2). Packard MicroScint-20® scintillation cocktail (40 μL) was added to each well and radioactivity determined using a Packard TopCount® instrument. The IC50 values were determined by nonlinear regression in Microsoft Excel® software. Ki values were calculated from the IC50s using the Cheng-Prusoff equation, where Ki=IC50/1+[Ligand]/KD].

Another experiment relates to adults with ADHD. Conditions: transdermal, 32 adults; cited from earlier work.

Usually Ki stands for a dissociation constant, usually derived from enzyme kinetics or from competition with a known ligand.

T1 sequence (P09483 31-630): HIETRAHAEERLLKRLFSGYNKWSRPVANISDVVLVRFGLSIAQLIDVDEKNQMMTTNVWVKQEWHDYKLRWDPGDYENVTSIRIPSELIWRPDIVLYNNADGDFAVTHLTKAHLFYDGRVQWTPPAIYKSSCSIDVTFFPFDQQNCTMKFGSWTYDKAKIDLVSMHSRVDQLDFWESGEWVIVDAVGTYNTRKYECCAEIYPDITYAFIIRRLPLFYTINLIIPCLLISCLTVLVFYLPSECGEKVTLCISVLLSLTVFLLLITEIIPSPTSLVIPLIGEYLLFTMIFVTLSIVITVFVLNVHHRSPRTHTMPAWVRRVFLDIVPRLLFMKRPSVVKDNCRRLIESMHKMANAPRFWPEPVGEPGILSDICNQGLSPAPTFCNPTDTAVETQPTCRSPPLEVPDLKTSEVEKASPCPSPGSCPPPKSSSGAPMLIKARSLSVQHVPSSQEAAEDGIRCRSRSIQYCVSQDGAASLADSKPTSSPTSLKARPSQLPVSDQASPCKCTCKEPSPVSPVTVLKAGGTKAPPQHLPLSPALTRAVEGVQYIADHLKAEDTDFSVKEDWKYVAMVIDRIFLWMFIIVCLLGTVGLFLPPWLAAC
T1 sequence (P12390 25-500): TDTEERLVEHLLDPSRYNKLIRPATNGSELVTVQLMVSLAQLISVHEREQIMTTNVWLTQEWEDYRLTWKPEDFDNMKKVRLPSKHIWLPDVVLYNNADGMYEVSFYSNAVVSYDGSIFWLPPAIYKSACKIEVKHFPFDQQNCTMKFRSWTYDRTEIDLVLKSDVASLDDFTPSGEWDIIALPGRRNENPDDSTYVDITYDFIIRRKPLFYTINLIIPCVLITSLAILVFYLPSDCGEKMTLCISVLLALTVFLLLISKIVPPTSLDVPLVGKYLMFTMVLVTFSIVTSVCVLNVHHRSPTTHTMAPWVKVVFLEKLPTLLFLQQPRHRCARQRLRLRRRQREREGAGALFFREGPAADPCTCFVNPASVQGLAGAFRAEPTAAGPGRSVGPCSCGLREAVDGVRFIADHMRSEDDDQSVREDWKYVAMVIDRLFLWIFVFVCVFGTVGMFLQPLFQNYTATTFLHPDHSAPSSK

For `Clc1ccc(-c2cc(OC[C@@H]3CCCN3)cnc2Cl)cc1`, in experiment [1], the inhibition constant Ki was 0.04 nM.

Take `c1ccc2ncc(N3CC4CNCC4C3)cc2c1` (stereo not shown): the Ki in experiment [1] was 1.5 nM.

For the compound `c1cncc(N2CC[C@@H]3CNC[C@@H]32)c1` [(R,R)-1-(pyridin-3-yl)-octahydro-pyrrolo[3,4-b]pyrrole], in experiment [1], the Ki was 8.8 nM.

Consider `Cc1cc([C@@H]2CCCN2C)on1` [ABT-418], for which the “efficacy in treating ADHD” value in the experiment on adults with ADHD is listed as “effective in treating ADHD”.

Source of the values: patent US20070184490A1, “Neuronal nicotinic receptor ligands and their use” (priority 2006, published 2007).
